Measurements as given in patent US20250134870A1, “PATHWAY MODULATOR, PHARMACEUTICAL COMPOSITION HAVING SAME, USE THEREOF, AND THERAPEUTIC METHOD USING SAME” (Jiangsu Yahong Meditech Co., Ltd., priority 2021, published 2025).

Tests used:
[1] = tested on: bleomycin-induced skin fibrosis; experiment: Bleomycin-induced skin fibrosis in mice: skin histopathology (dermal thickness, capillary density score, inflammatory cell infiltration score); assay type: in vivo, male C57BL/6 mice
Experimental: The skin tissue of the lesioned skin was subjected to dehydration, embedding and sectioning according to the pathology SOP, and the tissue was stained by HE and Masson staining. Histopathological analysis was performed according to the following methods:
Masson-stained sections were panoramically scanned by using Nanozomer S210 and the scanned images were subjected to quantitative analysis using Visiopharm VIS6.0 software. The degree of fibrosis was currently represented by the dermal thickness after Masson staining.
The fields of observation was selected in the dermis layer of the lesioned area (the number of fields selected was determined according to the size of the lesioned area) and scored according to the area occupied by capillaries in the area: • 0: No capillary formed • 1: The proportion of capillaries formed was less than 25%; • 2: The proportion of capillaries formed was 25-50%; • 3: The proportion of capillaries formed was 50-75%; • 4: The proportion of capillaries formed was greater than 75%. 3.8.3 Inflammatory cell infiltration score of dermis layer
The fields of observation was selected in the dermis layer of the lesioned area (the number of fields selected was determined according to the size of the lesioned area) and scored according to the degree of inflammatory cell infiltration: • 0: No inflammatory cell infiltration: • 1: A small amount of focal inflammatory cell infiltration; • 2: Scattered diffuse inflammatory cell infiltration: • 3: A large amount of diffuse inflammatory cell infiltration; • 4: A large amount of agglomerated inflammatory cell infiltration.

[2] = tested on: IRBP R16-induced experimental autoimmune uveoretinitis (EAU); experiment: Bovine IRBP R16-induced experimental autoimmune uveoretinitis (EAU): clinical score, AUC, incidence (Example 6); assay type: in vivo, Lewis rats
Experimental: On Day-1 (i.e., the day before immunization, hereinafter), 60 rats were randomly divided into 6 groups (n=10) based on body weight (see Table 18). On Day 0, rats in Groups 2 to 6 were anesthetized with isoflurane, followed by subcutaneous injection of a total of […] of emulsion resulting from IRBP R16 and CFA emulsified at a 1:1 v/v ratio, on both thighs (50 μL at each site) and tail head (100 μL), respectively.
From Day 0 after immunization, the eyes of rats were checked daily with a flashlight by gently opening the upper and lower eyelids of the test rats, and the incidence of disease was recorded. Clinical symptoms were scored in a blind manner from the onset of disease to the end of the study according to the criteria listed in Table 17.
Dosing started from Day 0 accurately according to the animal body weight for a total of 16 days.
The results were expressed as “mean±standard error”. Graphpad Prism or SPSS was used for statistical analysis, and p<0.05 was considered statistically significant.

[3] = tested on: 2,4-dinitrobenzenesulfonic acid (DNBS)-induced colitis; experiment: DNBS-induced enteritis/colitis in rats: body weight and stool score (Example 10); assay type: in vivo, Wistar rats; conditions: 3, 10 and 30 mg/kg
Experimental: The 90 animals were randomly grouped on Day-1 (i.e., the day before the experiment) based on animal body weight to ensure that the body weight of each group of animals were similar, so as to reduce bias. Rats were fasted for 40 hours before the experiment and were injected subcutaneously with 5% glucose saline (10 mL/kg, once daily) during fasting. • Experimental grouping:
On Day 1 of the experiment, fasting rats were anesthetized by intraperitoneal injection with Zoletil (25 mg/kg Tiletamine and 25 mg/kg Zolazepam) and 5 mg/kg Xylazine.
In groups G2-G6, a hose was inserted from the anus to left colic flexure (about 8 cm from the anus) and colitis was induced by DNBS enema (0.5 mL/animal) in rats. The normal control group (G1) received 30% ethanol enema by the same process. The head of the animal after enema was lowered for 15 min, and then the animal was kept in Trendelenburg position until waked to avoid backflow of the enema fluid.
The percentage of body weight was calculated according to the following formula: (body weight on Day X-initial weight)/initial weight]×100%.
(2) Stool score: during the experiment, the stool state of rats was scored daily (0=normal, 1=wet/sticky, 2=loose, 3=liquid).

[4] = tested on: 2,4-dinitrobenzenesulfonic acid (DNBS)-induced colitis; experiment: DNBS-induced colitis in rats: pathological score of colon tissue (H&E); assay type: in vivo, Wistar rats
Text: The proximal, ulcer (corresponding sites can be taken, if there was no ulcer) and distal parts of the colon tissue fixed by neutral buffered formalin were embedded with paraffin, sectioned (thickness 5 μm), and histopathological score was given by H&E staining.

[5] = 50 and 100 mg/kg PO QD, 28 days (Test groups 2#, 3#)
[6] = mean, G5 Test group 2#, 10 mg/kg PO QD × 7

NCc1c[nH]c(=S)n1[C@H]1CCc2c(F)cc(F)cc2C1 [Nepicastat]
degree of fibrosis of the lesioned skin ([1]; 100 mg/kg PO QD, 28 days (Test group 3#)): reduce the degree of fibrosis of the lesioned skin | effect to reduce dermal thickness ([1]; 25, 50 and 100 mg/kg PO QD, 28 days): dose-dependent, and the higher the dose, the more obvious the result, but there was no significant difference compared with the model group | inflammatory cell infiltration of the lesioned skin [1, 5]: significantly reduce | subdermal capillary hyperplasia [1, 5]: significantly reduce | Area under the curve (AUC) of clinical score ([2]; 25 mg/kg PO QD × 16 days): 45.30 | Area under the curve (AUC) of clinical score ([2]; 50 mg/kg PO QD × 16 days): 39.65 | Area under the curve (AUC) of clinical score ([2]; 100 mg/kg PO QD × 16 days): 37.65 | symptoms of uveitis, EAU clinical score and clinical score AUC ([2]; 25, 50 and 100 mg/kg PO QD × 16 days): moderately ameliorate the symptoms of uveitis and reduced the EAU clinical score and clinical score AUC, but this effect was not statistically significant | Incidence rate (%) ([2]; Day 0, 25 mg/kg PO QD): 0% | Incidence rate (%) ([2]; Day 0, 50 mg/kg PO QD): 0% | Incidence rate (%) ([2]; Day 0, 100 mg/kg PO QD): 0% | Incidence rate (%) ([2]; Day 1, 25 mg/kg PO QD): 0% | Incidence rate (%) ([2]; Day 1, 50 mg/kg PO QD): 0% | Incidence rate (%) ([2]; Day 1, 100 mg/kg PO QD): 0% | Incidence rate (%) ([2]; Day 2, 25 mg/kg PO QD): 0% | Incidence rate (%) ([2]; Day 2, 50 mg/kg PO QD): 0% | Incidence rate (%) ([2]; Day 2, 100 mg/kg PO QD): 0% | Incidence rate (%) ([2]; Day 3, 25 mg/kg PO QD): 0% | Incidence rate (%) ([2]; Day 3, 50 mg/kg PO QD): 0% | Incidence rate (%) ([2]; Day 3, 100 mg/kg PO QD): 0% | Incidence rate (%) ([2]; Day 4, 25 mg/kg PO QD): 0% | Incidence rate (%) ([2]; Day 4, 50 mg/kg PO QD): 0% | Incidence rate (%) ([2]; Day 4, 100 mg/kg PO QD): 0% | Incidence rate (%) ([2]; Day 5, 25 mg/kg PO QD): 70% | Incidence rate (%) ([2]; Day 5, 50 mg/kg PO QD): 70% | Incidence rate (%) ([2]; Day 5, 100 mg/kg PO QD): 80% | Incidence rate (%) ([2]; Day 6, 25 mg/kg PO QD): 100% | Incidence rate (%) ([2]; Day 6, 50 mg/kg PO QD): 100% | Incidence rate (%) ([2]; Day 6, 100 mg/kg PO QD): 80% | Incidence rate (%) ([2]; Day 7, 25 mg/kg PO QD): 70% | Incidence rate (%) ([2]; Day 7, 50 mg/kg PO QD): 100% | Incidence rate (%) ([2]; Day 7, 100 mg/kg PO QD): 50% | Incidence rate (%) ([2]; Day 8, 25 mg/kg PO QD): 100% | Incidence rate (%) ([2]; Day 8, 50 mg/kg PO QD): 100% | Incidence rate (%) ([2]; Day 8, 100 mg/kg PO QD): 100% | Incidence rate (%) ([2]; Day 9, 25 mg/kg PO QD): 100% | Incidence rate (%) ([2]; Day 9, 50 mg/kg PO QD): 100% | Incidence rate (%) ([2]; Day 9, 100 mg/kg PO QD): 100% | Incidence rate (%) ([2]; Day 10, 25 mg/kg PO QD): 100% | Incidence rate (%) ([2]; Day 10, 50 mg/kg PO QD): 100% | Incidence rate (%) ([2]; Day 10, 100 mg/kg PO QD): 100% | Incidence rate (%) ([2]; Day 11, 25 mg/kg PO QD): 100% | Incidence rate (%) ([2]; Day 11, 50 mg/kg PO QD): 100% | Incidence rate (%) ([2]; Day 11, 100 mg/kg PO QD): 100% | Incidence rate (%) ([2]; Day 12, 25 mg/kg PO QD): 100% | Incidence rate (%) ([2]; Day 12, 50 mg/kg PO QD): 100% | Incidence rate (%) ([2]; Day 12, 100 mg/kg PO QD): 100% | Incidence rate (%) ([2]; Day 13, 25 mg/kg PO QD): 100% | Incidence rate (%) ([2]; Day 13, 50 mg/kg PO QD): 100% | Incidence rate (%) ([2]; Day 13, 100 mg/kg PO QD): 100% | Incidence rate (%) ([2]; Day 14, 25 mg/kg PO QD): 100% | Incidence rate (%) ([2]; Day 14, 50 mg/kg PO QD): 100% | Incidence rate (%) ([2]; Day 14, 100 mg/kg PO QD): 100% | Incidence rate (%) ([2]; Day 15, 25 mg/kg PO QD): 100% | Incidence rate (%) ([2]; Day 15, 50 mg/kg PO QD): 100% | Incidence rate (%) ([2]; Day 15, 100 mg/kg PO QD): 100% | Incidence rate (%) ([2]; Day 16, 25 mg/kg PO QD): 100% | Incidence rate (%) ([2]; Day 16, 50 mg/kg PO QD): 100% | Incidence rate (%) ([2]; Day 16, 100 mg/kg PO QD): 100% | Incidence rate (%) ([2]; Day −1, 25 mg/kg PO QD): 0% | Incidence rate (%) ([2]; Day −1, 50 mg/kg PO QD): 0% | Incidence rate (%) ([2]; Day −1, 100 mg/kg PO QD): 0% | inhibition at 25 mg/kg ([2]; Rattus norvegicus, 384 h, 25 mg/kg PO QD × 16 days, vs model control, read-out: Inhibition rate of clinical score AUC): 8.67% | inhibition at 50 mg/kg ([2]; Rattus norvegicus, 384 h, 50 mg/kg PO QD × 16 days, vs model control, read-out: Inhibition rate of clinical score AUC): 20.1% | inhibition at 100 mg/kg ([2]; Rattus norvegicus, 384 h, 100 mg/kg PO QD × 16 days, vs model control, read-out: Inhibition rate of clinical score AUC): 24.1% | effects on DNBS-induced colitis in rats [3]: certain prophylactic and therapeutic effects | total score of colon tissue injury ([4]; 10 mg/kg (Test group 2#)): significantly reduce | Pathological score, Distal end, Damage [4, 6]: 0.93 | Pathological score, Distal end, Inflammation [4, 6]: 2.07 | Pathological score, Proximal end, Damage [4, 6]: 0.47 | Pathological score, Proximal end, Inflammation [4, 6]: 1.60 | Pathological score, Total score, Damage [4, 6]: 3.53 | Pathological score, Total score, Inflammation [4, 6]: 6.07 | Pathological score, Ulcer end, Damage [4, 6]: 2.13 | Pathological score, Ulcer end, Inflammation [4, 6]: 2.40
